Data on 26 molecules can be found in patent US20030171377A1, “Antidiabetic agents” (priority 2001, published 2003).

Counter-ions that a name gives are not always drawn.

Data set [1] relates to endogenous nuclear receptors in CV-1 cells. Nature of the data set: CV-1 Native Receptors Transcription Assay (MKNRCV1), Test C. Format: cell-based, African green monkey. Particulars: for MKNRCV1 % BRL @ 25 μM: percent activity of BRL 49653; for EC50: Chlorocebus sabaeus, CV-1 cells, 48 hours, unit inferred.
Data set [2] concerns CV-1 cells (FATP promoter luciferase reporter, 300 nM BRL). Nature of the data set: ANTCV1 Antagonist Transcription Assay, Test B. Format: cell-based, African green monkey. Particulars: Chlorocebus sabaeus, 25 μM test compound with 300 nM BRL, 48 hrs, % BRL inhibition, read-out: ANTCV1 INHIB @ 25 μM.
The test system of a further data set is 3T3-L1 preadipocytes. In words: 3T3-L1 Adipocyte Differentiation Assay (ADPDIFF), Test A. Format: cell-based. Particulars: BODIPY lipid fluorescence, reported as % of BRL 49653 at 5 μM. The protocol:
Cells are replenished with FBS containing media on day 5 of post-drug treatment and incubated for additional 4-6 days. Cells are stained with BODIPY a fluorescent lipophilic stain to quantitate the lipid content of the cells. The assay is optimized for a 96-well plate format. Approximately after 10 days of post-drug treatment, cells are fixed in 3% formalin solution for 15 min followed by staining with BODIPY (80 μg/ml) for 20 min at room temperature. The plate is then put through the CYTOFLUOR instrument to measure the fluorescence of BODIPY (excitation=485/20; emission=530/25).

The nature of data set [3]: Blood Glucose Measurement (Glucose Δ), Test D. It counts as in vivo, mice. Set-up: key to Glucose Δ: change in blood glucose, mg/dL. Particulars: for Glucose Δ: 4 hours post dose, 4 hour fasted animals, tail vein whole blood; for % BRL (in vivo, beside Glucose Δ): glucose change relative to BRL. The protocol:
Test D—Blood Glucose Measurement (Glucose Δ) Glucose is obtained 4 hours post dose via tail vein stick (5 μl whole blood) in awake, 4 hour fasted animals. Blood is drawn by capillary action into a glucose cuvette and read in a HemoCue Glucose Analyzer (Ryan Diagnostics). Blood is diluted 1:2 with saline if glucose levels are greater than 400 mg/dl (meter high range) and results multiplied by two.

`CCc1nnc([C@H](Cc2ccc(OCCc3nc(-c4ccccc4)oc3C)cc2)n2cccc2)o1`: the “MKNRCV1 % BRL @ 25 μM” value in data set [1] is listed as 12 % BRL. For the same molecule, in data set [2], the inhibition at 25 µM stood at 53.8%. The “ADPDIFF % BRL @ 5 μM” value in the data set on 3T3-L1 preadipocytes is listed as 88 % BRL. Also, in data set [3], the “Glucose Δ” value turned out to be 46.5 and the “% BRL (in vivo, beside Glucose Δ)” value was −20.0 % BRL.
What is called EC50 is the concentration that produces a half-maximal response. In the case of `Cc1oc(-c2ccccc2)nc1CCOc1ccc(CC(C(=O)O)n2ccc(C(=O)c3ccccc3)c2)cc1` (stereo not drawn), in data set [1], the “MKNRCV1 % BRL @ 25 μM” value is reported as 91 % BRL and the response was half-maximal at 2200 nM (EC50). Besides, in data set [2], the inhibition at 25 µM was -20%. Also, in the data set on 3T3-L1 preadipocytes, the “ADPDIFF % BRL @ 5 μM” value was 102 % BRL. Also, in data set [3], the “Glucose Δ” value is listed as −84.4 and the “% BRL (in vivo, beside Glucose Δ)” value worked out at 60.8 % BRL.
Regarding `Cc1oc(-c2ccccc2)nc1CCOc1ccc(C[C@@H](C(=O)O)n2cccc2Cl)cc1`, in data set [1], the “MKNRCV1 % BRL @ 25 μM” value is reported as 70 % BRL and the EC50 was 10 nM. In addition, the inhibition at 25 µM in data set [2] was -17.5%. Moreover, the “ADPDIFF % BRL @ 5 μM” value in the data set with 3T3-L1 preadipocytes turned out to be 86 % BRL. Further, in data set [3], the “Glucose Δ” value was found to be 54.8 and the “% BRL (in vivo, beside Glucose Δ)” value is reported as −40.1 % BRL.
With `Cc1oc(-c2ccccc2)nc1CCOc1ccc(CC(C(=O)O)c2ccccc2)cc1` (stereo not drawn), in data set [1], the “MKNRCV1 % BRL @ 25 μM” value was determined as 109 % BRL and the EC50 was determined as 300 nM. The inhibition at 25 µM in data set [2] is -48%. The “ADPDIFF % BRL @ 5 μM” value in the data set on 3T3-L1 preadipocytes was determined as 94 % BRL. In data set [3], the “Glucose Δ” value is on record as 49.2 and the “% BRL (in vivo, beside Glucose Δ)” value is −35.5 % BRL.
`CN(CCOc1ccc(CC(C(=O)O)c2ccccc2)cc1)c1nc2ccccc2o1.Cl` (stereo not drawn): in data set [1], the “MKNRCV1 % BRL @ 25 μM” value came to 91 % BRL and the midpoint of the response, the EC50, lay at 1000 nM. In addition, the inhibition at 25 µM in data set [2] is -45%. For the same molecule, the “ADPDIFF % BRL @ 5 μM” value in the data set with 3T3-L1 preadipocytes is given as 109 % BRL. In addition, in data set [3], the “Glucose Δ” value is on record as 172.0 and the “% BRL (in vivo, beside Glucose Δ)” value is −52.0 % BRL.
Consider `Cc1oc(-c2ccccc2)nc1CCOc1ccc(CC(C(=O)O)c2ccc(C(F)(F)F)cc2)cc1` (stereo not drawn), for which, in data set [1], the “MKNRCV1 % BRL @ 25 μM” value came to 78 % BRL and the EC50 was 200 nM. In addition, the inhibition at 25 µM in data set [2] is -49%. Moreover, the “ADPDIFF % BRL @ 5 μM” value in the data set with 3T3-L1 preadipocytes was 107 % BRL. Moreover, in data set [3], the “Glucose Δ” value is given as 246.8 and the “% BRL (in vivo, beside Glucose Δ)” value is listed as −180.4 % BRL.
In the case of `Cc1oc(-c2ccccc2)nc1CCOc1ccc(CC(C(=O)O)c2cccnc2)cc1.Cl` (stereo not drawn), in data set [1], the “MKNRCV1 % BRL @ 25 μM” value is 58 % BRL and a half-maximal effect (EC50) was put at 400 nM. The inhibition at 25 µM in data set [2] was -112%. For the same molecule, the “ADPDIFF % BRL @ 5 μM” value with 3T3-L1 preadipocytes is 132 % BRL. Also, in data set [3], the “Glucose Δ” value is recorded as −72.5 and the “% BRL (in vivo, beside Glucose Δ)” value is listed as 31.1 % BRL.
For the molecule `CN(CC#Cc1ccc(C[C@@H](C(=O)O)n2cccc2)cc1)c1ccccc1`, in data set [1], the “MKNRCV1 % BRL @ 25 μM” value is 92 % BRL and the EC50 worked out at 2900 nM. The inhibition at 25 µM in data set [2] is -31%. Besides, in the data set on 3T3-L1 preadipocytes, the “ADPDIFF % BRL @ 5 μM” value is given as 83 % BRL. For the same molecule, in data set [3], the “Glucose Δ” value is 182.8 and the “% BRL (in vivo, beside Glucose Δ)” value is reported as −55.3 % BRL.
Take `O=C(O)[C@H](Cc1ccc(OCCSc2nc3ccccc3s2)cc1)n1cccc1`: in data set [1], the “MKNRCV1 % BRL @ 25 μM” value amounted to 102 % BRL and the EC50 was 700 nM. Moreover, the inhibition at 25 µM in data set [2] was -102%. Further, in the data set on 3T3-L1 preadipocytes, the “ADPDIFF % BRL @ 5 μM” value amounted to 97 % BRL. Further, in data set [3], the “Glucose Δ” value is reported as 155.0 and the “% BRL (in vivo, beside Glucose Δ)” value was −66.5 % BRL.
The term melting point denotes the temperature, or range, at which the solid turns liquid. Molecule `Cc1oc(-c2ccccc2)nc1CCN(Cc1ccccc1)Cc1ccc(C[C@@H](C(=O)O)n2cccc2)cc1` (as salt: salt) showed a melting point of 110 to 113 °C.
Turning to `Cc1oc(-c2ccccc2)nc1CCOc1ccc(C[C@@H](C(=O)O)c2cccs2)cc1` (stereo in doubt) (hydrate or solvate) [Example 32, 3-{4-[2-(5-Methyl-2-phenyl-oxazol-4-yl)-ethoxy]-phenyl}-2-thiophen-2-yl-propionic acid], the melting point was 146 to 147 °C.
Consider `O=C(O)[C@H](Cc1ccc(OCCn2c(-c3ccccc3)nc3ccccc32)cc1)n1cccc1` (stereo in doubt) [Example 23, 3-{4-[2-(2-Phenyl-benzimidazol-1-yl)-ethoxy]-phenyl}-2-pyrrol-1-yl-propionic acid], for which the melting point lay within 210 to 212 °C.
Still for that read-out and setting: under `Cc1oc(-c2ccccc2)nc1CCC(=O)c1ccc(C[C@@H](C(=O)O)n2cccc2)cc1` (stereo in doubt) [Example 31, 3-{4-[3-(5-Methyl-2-phenyl-oxazol-4-yl)-propionyl]-phenyl}-2-pyrrol-1-yl-propionic acid] stands 90 to 92 °C; under `Cc1oc(-c2ccccc2)nc1CCOc1ccc(C[C@@](C)(C(=O)O)n2ccc(Br)c2)cc1` (stereo in doubt) [Example 58, 2-(3-Bromo-pyrrol-1-yl)-2-methyl-3-{4-[2-(5-methyl-2-phenyl-oxazol-4-yl)-ethoxy]-phenyl}-propionic acid], 158 to 159 °C.
Still for that read-out and setting: under `Cc1oc(-c2ccccc2)nc1CCOc1ccc(C[C@@H](C(=O)O)n2ccc(-c3ccccc3)c2)cc1` [Example 4, (S)-3-{4-[2-(5-Methyl-2-phenyl-oxazol-4-yl)-ethoxy]-phenyl}-2-(3-phenyl-pyrrol-1-yl)-propionic acid] stands 146 to 147 °C; under `Cc1oc(-c2ccccc2)nc1CCOc1ccc(C[C@@H](C(=O)O)n2cccc2C(=O)C(F)(F)F)cc1` [Example 12, (S)-3-{4-[2-(5-Methyl-2-phenyl-oxazol-4-yl)-ethoxy]-phenyl}-2-[2-(2,2,2-trifluoro-acetyl)-pyrrol-1-yl]-propionic acid], 187 to 188 °C.
In the case of `CC(=O)c1cccn1[C@@H](Cc1ccc(OCCc2nc(-c3ccccc3)oc2C)cc1)C(=O)O` [Example 14, (S)-2-(2-Acetyl-pyrrol-1-yl)-3-{4-[2-(5-methyl-2-phenyl-oxazol-4-yl)-ethoxy]-phenyl}-propionic acid], the melting point is 110 to 112 °C.
Molecule `Cc1sc(-c2ccccc2)nc1CCOc1ccc(C[C@@H](C(=O)O)n2cccc2)cc1` [Example 18, (S)-3-{4-[2-(5-Methyl-2-phenyl-thiazol-4-yl)-ethoxy]-phenyl}-2-pyrrol-1-yl-propionic acid] yielded a melting point of 157 to 158 °C.
In the case of `Cc1oc(-c2ccccc2)nc1CCOc1ccc(C[C@@H](C(=O)O)c2ccccc2)cc1` [Example 36, 3-{4-[2-(5-Methyl-2-phenyl-oxazol-4-yl)-ethoxy]-phenyl}-2-phenyl-propionic acid (R)], the melting point was in the range of 124.1 to 125 °C.
Consider `COc1ccc(C(Cc2ccc(OCCc3nc(-c4ccccc4)oc3C)cc2)C(=O)O)cc1` (stereo not drawn) [Example 37, 2-(4-Methoxy-phenyl)-3-{4-[2-(5-methyl-2-phenyl-oxazol-4-yl)-ethoxy]-phenyl}-propionic acid], for which the melting point is 114.7 to 116.6 °C.
The molecule `Cc1oc(-c2ccccc2)nc1CCOc1ccc(CC(C)(C(=O)O)c2ccccc2)cc1` (stereo not drawn) [Example 39, 2-Methyl-3-{4-[2-(5-methyl-2-phenyl-oxazol-4-yl)-ethoxy]-phenyl}-2-phenyl-propionic acid] had a melting point of 178 to 179 °C.
Take `Cc1oc(-c2ccccc2)nc1CCOc1ccc(CC(C)(C)C(=O)O)cc1` [Example 40, 2,2-Dimethyl-3-{4-[2-(5-methyl-2-phenyl-oxazol-4-yl)-ethoxy]-phenyl}-propionic acid]: the melting point lay within 133 to 134 °C.
Turning to `CC(=O)c1cccn1[C@@H](Cc1ccc(OCCc2nc(-c3ccccc3)oc2C)cc1)C(=O)O` [drawing 230], in data set [1], the “MKNRCV1 % BRL @ 25 μM” value came out at 60 % BRL and a half-maximal response (EC50) required 3600 nM. The inhibition at 25 µM in data set [2] stood at 20%. The “ADPDIFF % BRL @ 5 μM” value with 3T3-L1 preadipocytes was found to be 89 % BRL. In data set [3], the “Glucose Δ” value was 12.4 and the “% BRL (in vivo, beside Glucose Δ)” value is listed as −5.1 % BRL.
For the molecule `Cc1oc(-c2ccccc2)nc1CCOc1ccc(C[C@@H](C(=O)O)n2cccc2C(=O)C(F)(F)F)cc1` [drawing 233], in data set [1], the “MKNRCV1 % BRL @ 25 μM” value amounted to 75 % BRL and a half-maximal effect (EC50) was put at 1700 nM. Besides, the inhibition at 25 µM in data set [2] was -1%. In addition, the “ADPDIFF % BRL @ 5 μM” value in the data set on 3T3-L1 preadipocytes is 105 % BRL. Further, in data set [3], the “Glucose Δ” value is −157.2 and the “% BRL (in vivo, beside Glucose Δ)” value was 113.3 % BRL.
Consider `Cc1oc(-c2ccccc2)nc1CCOc1ccc(C[C@@H](C(=O)O)n2ccc(-c3ccccc3)c2)cc1` [drawing 241], for which, in data set [1], the “MKNRCV1 % BRL @ 25 μM” value was found to be 54 % BRL and a half-maximal effect (EC50) was put at 900 nM. The inhibition at 25 µM in data set [2] came out at 29%. In the data set with 3T3-L1 preadipocytes, the “ADPDIFF % BRL @ 5 μM” value amounted to 125 % BRL. In data set [3], the “Glucose Δ” value is on record as −194.0 and the “% BRL (in vivo, beside Glucose Δ)” value is 83.3 % BRL.
As for `Cc1oc(-c2ccccc2)nc1CCOc1ccc(C[C@@H](C(=O)O)c2ccccc2)cc1` [drawing 252], in data set [1], the “MKNRCV1 % BRL @ 25 μM” value stood at 106 % BRL and the EC50 was determined as 150 nM. For the same molecule, the inhibition at 25 µM in data set [2] is -104%. The “ADPDIFF % BRL @ 5 μM” value in the data set on 3T3-L1 preadipocytes was determined as 95 % BRL. Besides, in data set [3], the “Glucose Δ” value is given as −58.8 and the “% BRL (in vivo, beside Glucose Δ)” value amounted to 17.8 % BRL.
